Experimental data as given in ChEMBL document CHEMBL5120799, “A Nrf-2 Stimulatory Hydroxylated Cannabidiol Derivative from Hemp (Cannabis sativa)” (J Nat Prod, 2022).
The source made the active and inactive calls. No cut-off for these calls is given here.

Columns and labels:
[1] = target: T1, Nuclear factor erythroid 2-related factor 2 (Homo sapiens) (UniProt Q16236); experiment: Activation of Nrf2 transcriptional activity in human HaCaT-ARE-Luc cells at 1 uM incubated for 6 hrs by luciferase activity assay relative to control; format: cell-based
T1 sequence (whole entry): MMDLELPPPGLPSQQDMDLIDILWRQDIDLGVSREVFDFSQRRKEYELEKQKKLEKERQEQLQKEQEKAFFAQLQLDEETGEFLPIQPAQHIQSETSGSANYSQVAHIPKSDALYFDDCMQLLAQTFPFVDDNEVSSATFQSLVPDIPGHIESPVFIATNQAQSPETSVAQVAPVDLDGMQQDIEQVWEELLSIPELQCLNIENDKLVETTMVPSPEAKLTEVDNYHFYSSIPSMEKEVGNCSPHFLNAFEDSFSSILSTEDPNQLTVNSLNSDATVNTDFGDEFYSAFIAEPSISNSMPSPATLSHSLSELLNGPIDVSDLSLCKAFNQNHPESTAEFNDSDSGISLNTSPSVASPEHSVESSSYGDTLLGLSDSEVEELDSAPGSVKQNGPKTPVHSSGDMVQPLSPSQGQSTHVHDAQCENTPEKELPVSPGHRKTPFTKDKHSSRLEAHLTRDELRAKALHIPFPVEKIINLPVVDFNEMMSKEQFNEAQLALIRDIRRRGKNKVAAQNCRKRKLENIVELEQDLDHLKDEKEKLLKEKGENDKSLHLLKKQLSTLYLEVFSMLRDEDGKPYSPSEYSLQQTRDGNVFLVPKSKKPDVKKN

[2] = target: T1, Nuclear factor erythroid 2-related factor 2 (Homo sapiens); experiment: Activation of Nrf2 transcriptional activity in human HaCaT-ARE-Luc cells at 10 uM incubated for 6 hrs by luciferase activity assay relative to control; format: cell-based; settings: filed as activator
[3] = target: T1, Nuclear factor erythroid 2-related factor 2 (Homo sapiens); experiment: Activation of Nrf2 transcriptional activity in human HaCaT-ARE-Luc cells at 25 uM incubated for 6 hrs by luciferase activity assay relative to control; format: cell-based; settings: filed as activator
[4] = tested on: HaCaT; experiment: Inhibition of TBHP-induced ROS production in human HaCaT cells assessed as reduction on intracellular ROS level at 1 to 25 uM pretreated for 30 mins followed by TBHP stimulation and measured after 3 hrs by DCFH2-DA staining analysis; format: functional, cell-based; settings: dose 1-25 µM, time 3.5 hrs, DDE = dose-dependent effect
[5] = tested on: HaCaT; experiment: Inhibition of TBHP-induced ROS production in human HaCaT cells assessed as reduction on intracellular ROS level at 25 uM pretreated for 30 mins followed by TBHP stimulation and measured after 3 hrs by DCFH2-DA staining analysis; format: functional, cell-based; settings: time 3.5 hrs
[6] = target: T1, Nuclear factor erythroid 2-related factor 2 (Homo sapiens); experiment: Activation of Nrf2 transcriptional activity in human HaCaT-ARE-Luc cells at 1 to 25 uM incubated for 6 hrs by luciferase activity assay; format: cell-based; settings: filed as activator, dose 1-25 µM

Compound	Activity [1] [%]	Activity [2] [%]	Activity [3] [%]	inhibition [4]	inhibition [5]	Activity [6]
C=C1CC[C@@H](C(=C)C)[C@H](c2c(O)cc(CCCCC)cc2O)[C@H]1O	20	144	202	Dde	Active	–
C=C(C)[C@@H]1CCC(C)=C[C@H]1c1c(O)cc(CCCCC)cc1O	–	–	–	–	–	Active
